Test results taken from US20220242870A1, “HETEROCYCLE-FUSED PYRIMIDINE DERIVATIVE AND USE THEREOF” (VORONOI Inc., priority 2019, published 2022).

What was measured:
Experiment in all cases: scanMAX kinase assay panel
Type in all cases: binding
Conditions in all cases: read-out: control percentage (% control)
SRPK1 = target: T1, SRPK1 (Homo sapiens, UniProt Q96SB4)
T1 construct: purchased DiscoverX
Experimental: (§1) The activities of the compounds according to the present invention to more diverse enzymes were evaluated. Specifically, it was decided that the enzyme selectivity of Example 74 selected from the compounds of Examples 1 to 129 was measured at the request of DiscoverX, and the experiment was conducted using a scanMAX™ kinase assay panel. At this time, as a drug to treat the enzyme, a solution prepared by dissolving in DMSO at a concentration of 1 μM was used, and the control percentage (% control) was determined by the method of Equation 1 below, and the results were shown in Table 2 below.
(§2) In Equation above, the positive control and negative control mean compounds showing control percentages of 0% and 100% as DMSO, respectively.

LOK = target: T2, LOK (Homo sapiens, UniProt O94804)
T2 construct: purchased DiscoverX scanMAX kinase assay panel
Experimental: as §1, §2

MAP4K5 = target: T3, MAP4K5 (Homo sapiens, UniProt Q9Y4K4)
T3 construct: purchased DiscoverX scanMAX kinase assay panel
Experimental: as §1, §2

EPHB4 = target: T4, EPHB4 (Homo sapiens, UniProt P54760)
T4 construct: purchased DiscoverX scanMAX kinase assay panel
Experimental: as §1, §2

[1] = target: T5, RSK3(Kin.Dom.2-C-terminal) (Homo sapiens, UniProt Q15349)
T5 construct: RSK3(Kin.Dom.2-C-terminal); purchased DiscoverX scanMAX kinase assay panel
Experimental: as §1, §2

[2] = target: T6, TYK2(JH2domain-pseudokinase) (Homo sapiens, UniProt P29597)
T6 construct: TYK2(JH2domain-pseudokinase); purchased DiscoverX
Experimental: as §1, §2

PIP5K1A = target: T7, PIP5K1A (Homo sapiens, UniProt Q99755)
T7 construct: purchased DiscoverX scanMAX kinase assay panel
T7 sequence (Q99755 whole entry): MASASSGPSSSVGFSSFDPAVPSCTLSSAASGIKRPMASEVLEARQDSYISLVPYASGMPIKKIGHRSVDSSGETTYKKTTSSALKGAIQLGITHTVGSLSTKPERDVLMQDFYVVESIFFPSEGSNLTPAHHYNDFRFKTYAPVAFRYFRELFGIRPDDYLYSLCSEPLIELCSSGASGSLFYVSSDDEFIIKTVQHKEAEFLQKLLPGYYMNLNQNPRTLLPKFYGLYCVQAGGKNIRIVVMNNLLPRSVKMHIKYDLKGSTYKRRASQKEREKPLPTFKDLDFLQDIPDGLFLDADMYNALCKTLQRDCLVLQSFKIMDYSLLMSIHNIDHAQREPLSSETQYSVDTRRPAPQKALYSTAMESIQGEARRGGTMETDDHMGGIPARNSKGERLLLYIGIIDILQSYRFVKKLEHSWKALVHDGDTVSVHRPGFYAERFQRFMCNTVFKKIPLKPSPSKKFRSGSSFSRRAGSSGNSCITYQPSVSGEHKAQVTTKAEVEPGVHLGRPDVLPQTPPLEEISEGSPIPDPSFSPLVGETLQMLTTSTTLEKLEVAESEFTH
Experimental: as §1, §2

BIKE = target: T8, BIKE (Homo sapiens, UniProt Q9NSY1)
T8 construct: purchased DiscoverX (scanMAX panel, contract assay)
Experimental: as §1, §2

TAK1 = target: T9, TAK1 (Homo sapiens, UniProt O43318)
T9 construct: purchased DiscoverX
Experimental: as §1, §2

TRKC = target: T10, TRKC (Homo sapiens, UniProt Q16288)
T10 construct: purchased DiscoverX
Experimental: as §1, §2

[3] = target: T11, JAK2(JH1domain-catalytic) (Homo sapiens, UniProt O60674)
T11 construct: JAK2(JH1 domain-catalytic); purchased DiscoverX scanMAX kinase assay panel
Experimental: as §1, §2

MEK1 = target: T12, MEK1 (Homo sapiens, UniProt Q02750)
T12 construct: purchased DiscoverX scanMAX kinase assay panel
Experimental: as §1, §2

ALK = target: T13, ALK (Homo sapiens, UniProt Q9UM73)
T13 construct: purchased DiscoverX (scanMAX panel, contract assay)
T13 sequence (Q9UM73 19-1620): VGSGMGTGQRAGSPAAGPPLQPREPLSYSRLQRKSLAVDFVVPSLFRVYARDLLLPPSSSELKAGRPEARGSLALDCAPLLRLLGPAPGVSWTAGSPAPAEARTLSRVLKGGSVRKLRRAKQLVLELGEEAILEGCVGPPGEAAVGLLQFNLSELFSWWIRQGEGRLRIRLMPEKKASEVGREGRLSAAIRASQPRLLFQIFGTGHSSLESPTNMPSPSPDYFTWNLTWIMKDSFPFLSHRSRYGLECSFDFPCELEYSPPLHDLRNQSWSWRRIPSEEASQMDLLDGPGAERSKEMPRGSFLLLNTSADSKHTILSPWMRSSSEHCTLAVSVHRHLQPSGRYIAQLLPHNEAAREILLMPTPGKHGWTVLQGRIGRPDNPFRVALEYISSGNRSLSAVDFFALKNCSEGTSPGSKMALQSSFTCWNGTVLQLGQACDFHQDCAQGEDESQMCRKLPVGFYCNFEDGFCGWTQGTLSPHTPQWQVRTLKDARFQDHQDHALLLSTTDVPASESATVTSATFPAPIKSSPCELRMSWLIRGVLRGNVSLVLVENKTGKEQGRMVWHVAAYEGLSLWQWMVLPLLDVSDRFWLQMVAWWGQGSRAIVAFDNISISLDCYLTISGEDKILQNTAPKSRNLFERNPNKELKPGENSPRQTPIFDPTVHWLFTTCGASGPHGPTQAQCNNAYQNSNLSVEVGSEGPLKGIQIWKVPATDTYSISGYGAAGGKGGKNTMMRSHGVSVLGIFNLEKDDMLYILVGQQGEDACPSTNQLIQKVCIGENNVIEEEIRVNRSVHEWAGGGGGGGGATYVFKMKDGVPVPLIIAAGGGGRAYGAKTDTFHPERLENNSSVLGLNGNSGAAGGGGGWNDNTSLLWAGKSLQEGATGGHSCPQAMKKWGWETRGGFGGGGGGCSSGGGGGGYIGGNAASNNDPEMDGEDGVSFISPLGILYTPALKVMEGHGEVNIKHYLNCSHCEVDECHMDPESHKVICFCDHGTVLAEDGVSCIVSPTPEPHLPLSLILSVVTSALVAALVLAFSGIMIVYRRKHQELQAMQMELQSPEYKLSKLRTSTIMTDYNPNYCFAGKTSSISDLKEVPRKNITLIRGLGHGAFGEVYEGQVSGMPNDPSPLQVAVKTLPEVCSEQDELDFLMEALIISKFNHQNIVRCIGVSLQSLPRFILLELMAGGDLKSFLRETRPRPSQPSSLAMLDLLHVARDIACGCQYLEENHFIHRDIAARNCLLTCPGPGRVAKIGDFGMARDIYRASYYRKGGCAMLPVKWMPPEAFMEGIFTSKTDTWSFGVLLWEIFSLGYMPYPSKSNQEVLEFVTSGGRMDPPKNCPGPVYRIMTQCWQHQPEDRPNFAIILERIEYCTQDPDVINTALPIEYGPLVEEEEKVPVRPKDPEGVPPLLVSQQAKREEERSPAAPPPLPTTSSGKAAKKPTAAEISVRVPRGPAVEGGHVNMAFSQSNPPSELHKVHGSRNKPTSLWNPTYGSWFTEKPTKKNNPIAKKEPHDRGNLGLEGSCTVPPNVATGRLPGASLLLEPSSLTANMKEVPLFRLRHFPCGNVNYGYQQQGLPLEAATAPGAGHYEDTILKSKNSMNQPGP
Experimental: as §1, §2

SNARK = target: T14, SNARK (Homo sapiens, UniProt Q9H093)
T14 construct: purchased DiscoverX
Experimental: as §1, §2

JNK2 = target: T15, JNK2 (Homo sapiens, UniProt P45984)
T15 construct: purchased DiscoverX scanMAX kinase assay panel
Experimental: as §1, §2

EGFR = target: T16, EGFR (Homo sapiens, UniProt P00533)
T16 construct: purchased DiscoverX scanMAX kinase assay panel
Experimental: as §1, §2

EGFR(E746-A750del) = target: T17, EGFR(E746-A750del) (Homo sapiens, UniProt P00533, DEL746-750)
T17 construct: purchased DiscoverX scanMAX kinase assay panel
Experimental: as §1, §2

MST3 = target: T18, MST3 (Homo sapiens, UniProt Q9Y6E0)
T18 construct: purchased DiscoverX scanMAX kinase assay panel
Experimental: as §1, §2

DYRK1B = target: T19, DYRK1B (Homo sapiens, UniProt Q9Y463)
T19 construct: purchased DiscoverX scanMAX kinase assay panel
Experimental: as §1, §2

TRKB = target: T20, TRKB (Homo sapiens, UniProt Q16620)
T20 construct: purchased DiscoverX
Experimental: as §1, §2

EGFR(L858R) = target: T21, EGFR(L858R) (Homo sapiens, UniProt P00533, L858R)
T21 construct: purchased DiscoverX scanMAX kinase assay panel
Experimental: as §1, §2

TTK = target: T22, TTK (Homo sapiens, UniProt P33981)
T22 construct: purchased DiscoverX
T22 sequence (P33981 whole entry): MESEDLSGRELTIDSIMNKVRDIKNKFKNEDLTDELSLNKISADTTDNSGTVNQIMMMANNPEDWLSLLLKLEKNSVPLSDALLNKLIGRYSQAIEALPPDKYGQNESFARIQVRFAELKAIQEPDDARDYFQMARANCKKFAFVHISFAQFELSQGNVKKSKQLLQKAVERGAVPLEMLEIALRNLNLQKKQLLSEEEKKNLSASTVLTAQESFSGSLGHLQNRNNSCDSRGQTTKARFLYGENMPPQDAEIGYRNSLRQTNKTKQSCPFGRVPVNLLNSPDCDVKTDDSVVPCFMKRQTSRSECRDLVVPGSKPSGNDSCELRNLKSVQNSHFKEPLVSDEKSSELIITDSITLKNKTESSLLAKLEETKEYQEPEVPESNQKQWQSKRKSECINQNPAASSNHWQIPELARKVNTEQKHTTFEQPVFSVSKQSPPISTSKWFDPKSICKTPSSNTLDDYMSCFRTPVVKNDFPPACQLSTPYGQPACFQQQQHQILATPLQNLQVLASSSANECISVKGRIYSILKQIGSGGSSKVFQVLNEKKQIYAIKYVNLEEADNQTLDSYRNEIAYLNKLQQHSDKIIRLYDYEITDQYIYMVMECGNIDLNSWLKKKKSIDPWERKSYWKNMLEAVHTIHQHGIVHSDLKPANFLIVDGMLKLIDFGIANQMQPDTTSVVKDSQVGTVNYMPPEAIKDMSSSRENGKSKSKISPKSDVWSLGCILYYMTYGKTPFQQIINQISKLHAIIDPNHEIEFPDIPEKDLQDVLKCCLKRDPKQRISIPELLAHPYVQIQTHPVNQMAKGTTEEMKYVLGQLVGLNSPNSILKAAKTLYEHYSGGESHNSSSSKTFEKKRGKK
Experimental: as §1, §2

[4] = target: T23, ABL1(T315I)-phosphoryIated (Homo sapiens, UniProt P00519, T315I)
T23 construct: purchased DiscoverX (scanMAX panel, contract assay)
Experimental: as §1, §2

MUSK = target: T24, MUSK (Homo sapiens, UniProt O15146)
T24 construct: purchased DiscoverX scanMAX kinase assay panel
Experimental: as §1, §2

FLT3(N841I) = target: T25, FLT3(N841I) (Homo sapiens, UniProt P36888, N841I)
T25 construct: purchased DiscoverX scanMAX kinase assay panel
Experimental: as §1, §2

MEK5 = target: T26, MEK5 (Homo sapiens, UniProt Q13163)
T26 construct: purchased DiscoverX scanMAX kinase assay panel
Experimental: as §1, §2

RIOK3 = target: T27, RIOK3 (Homo sapiens, UniProt O14730)
T27 construct: purchased DiscoverX scanMAX kinase assay panel
Experimental: as §1, §2

CDK4-cyclinD3 = target: T28, CDK4-cyclinD3 (Homo sapiens, UniProt P11802)
T28 construct: purchased DiscoverX (scanMAX panel, contract assay)
T28 sequence (P11802 whole entry): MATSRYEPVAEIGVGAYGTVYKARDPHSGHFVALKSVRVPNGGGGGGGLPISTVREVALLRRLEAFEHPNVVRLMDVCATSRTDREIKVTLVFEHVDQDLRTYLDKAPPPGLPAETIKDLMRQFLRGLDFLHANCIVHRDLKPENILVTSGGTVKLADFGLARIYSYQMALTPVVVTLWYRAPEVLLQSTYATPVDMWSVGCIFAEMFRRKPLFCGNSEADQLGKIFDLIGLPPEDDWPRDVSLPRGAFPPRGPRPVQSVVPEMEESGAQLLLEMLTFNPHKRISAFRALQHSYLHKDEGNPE
T28 sequence (P30281 whole entry partner): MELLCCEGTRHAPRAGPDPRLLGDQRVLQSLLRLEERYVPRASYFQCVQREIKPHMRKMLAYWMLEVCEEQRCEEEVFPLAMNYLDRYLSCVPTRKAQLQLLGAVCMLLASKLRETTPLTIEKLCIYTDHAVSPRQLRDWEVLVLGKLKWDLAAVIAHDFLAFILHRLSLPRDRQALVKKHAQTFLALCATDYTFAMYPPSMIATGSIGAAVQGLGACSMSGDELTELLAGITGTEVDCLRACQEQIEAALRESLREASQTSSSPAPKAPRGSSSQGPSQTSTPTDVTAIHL
Experimental: as §1, §2

ULK2 = target: T29, ULK2 (Homo sapiens, UniProt Q8IYT8)
T29 construct: purchased DiscoverX
T29 sequence (Q8IYT8 whole entry): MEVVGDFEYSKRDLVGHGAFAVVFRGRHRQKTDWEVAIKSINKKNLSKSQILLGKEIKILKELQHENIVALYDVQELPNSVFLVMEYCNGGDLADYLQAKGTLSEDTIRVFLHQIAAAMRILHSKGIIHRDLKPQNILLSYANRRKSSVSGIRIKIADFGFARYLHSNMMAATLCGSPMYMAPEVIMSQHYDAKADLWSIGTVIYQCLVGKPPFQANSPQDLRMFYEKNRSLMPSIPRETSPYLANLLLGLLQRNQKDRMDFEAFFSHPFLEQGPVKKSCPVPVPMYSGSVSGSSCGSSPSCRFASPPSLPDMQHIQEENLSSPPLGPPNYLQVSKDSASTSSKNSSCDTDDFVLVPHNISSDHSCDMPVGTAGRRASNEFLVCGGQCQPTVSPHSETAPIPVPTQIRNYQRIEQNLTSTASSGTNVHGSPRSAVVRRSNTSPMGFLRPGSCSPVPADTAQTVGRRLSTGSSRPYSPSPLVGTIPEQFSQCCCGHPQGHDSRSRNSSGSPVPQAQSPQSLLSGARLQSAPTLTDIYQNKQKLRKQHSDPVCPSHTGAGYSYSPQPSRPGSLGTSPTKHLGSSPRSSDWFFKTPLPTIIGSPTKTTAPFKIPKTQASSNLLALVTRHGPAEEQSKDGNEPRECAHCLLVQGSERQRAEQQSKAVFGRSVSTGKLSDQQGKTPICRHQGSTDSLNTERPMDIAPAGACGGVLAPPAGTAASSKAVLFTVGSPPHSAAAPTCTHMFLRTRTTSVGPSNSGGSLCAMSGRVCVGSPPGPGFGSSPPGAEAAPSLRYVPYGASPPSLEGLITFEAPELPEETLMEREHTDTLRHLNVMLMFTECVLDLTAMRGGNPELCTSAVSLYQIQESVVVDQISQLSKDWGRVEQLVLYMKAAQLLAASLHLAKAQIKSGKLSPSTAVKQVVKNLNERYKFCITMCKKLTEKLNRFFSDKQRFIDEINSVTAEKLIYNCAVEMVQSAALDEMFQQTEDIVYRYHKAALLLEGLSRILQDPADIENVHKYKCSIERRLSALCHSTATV
Experimental: as §1, §2

TAOK3 = target: T30, TAOK3 (Homo sapiens, UniProt Q9H2K8)
T30 construct: purchased DiscoverX
Experimental: as §1, §2

PAK3 = target: T31, PAK3 (Homo sapiens, UniProt O75914)
T31 construct: purchased DiscoverX scanMAX kinase assay panel
Experimental: as §1, §2

IRAK3 = target: T32, IRAK3 (Homo sapiens, UniProt Q9Y616)
T32 construct: purchased DiscoverX scanMAX kinase assay panel
Experimental: as §1, §2

ULK1 = target: T33, ULK1 (Homo sapiens, UniProt O75385)
T33 construct: purchased DiscoverX
Experimental: as §1, §2

TRKA = target: T34, TRKA (Homo sapiens, UniProt P04629)
T34 construct: purchased DiscoverX
Experimental: as §1, §2

[5] = target: T35, TYK2(JH1domain-catalytic) (Homo sapiens, UniProt P29597)
T35 construct: TYK2(JH1domain-catalytic); purchased DiscoverX
T35 sequence (P29597 897-1176 limits assumed): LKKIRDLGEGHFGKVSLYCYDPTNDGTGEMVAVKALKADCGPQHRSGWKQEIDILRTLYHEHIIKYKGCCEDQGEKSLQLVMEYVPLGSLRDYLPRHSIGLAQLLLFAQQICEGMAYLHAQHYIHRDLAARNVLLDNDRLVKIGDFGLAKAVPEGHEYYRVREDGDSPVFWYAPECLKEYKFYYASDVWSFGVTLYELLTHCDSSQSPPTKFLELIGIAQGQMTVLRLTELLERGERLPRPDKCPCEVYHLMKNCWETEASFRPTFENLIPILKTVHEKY
Experimental: as §1, §2

CN1CCN(c2ccc(Nc3nc(N4OCC[C@H]4c4ccccc4)c4cc[nH]c4n3)cc2)CC1 [Example 74, (S)-N-(4-(4-methylpiperazin-1-yl)phenyl)-4-(3-phenylisoxazolidin-2-yl)-7H-pyrrolo[2,3-d]pyrimidin-2-amine]
remaining binding at 1 µM (SRPK1): 14% | remaining binding at 1 µM (LOK): 8.7% | remaining binding at 1 µM (MAP4K5): 21% | remaining binding at 1 µM (EPHB4): 31% | remaining binding at 1 µM [1]: 17% | remaining binding at 1 µM [2]: 2.6% | remaining binding at 1 µM (PIP5K1A): 1.2% | remaining binding at 1 µM (BIKE): 1.8% | remaining binding at 1 µM (TAK1): 16% | remaining binding at 1 µM (TRKC): 21% | remaining binding at 1 µM [3]: 0% | remaining binding at 1 µM (MEK1): 16% | remaining binding at 1 µM (ALK): 31% | remaining binding at 1 µM (SNARK): 3.7% | remaining binding at 1 µM (JNK2): 29% | remaining binding at 1 µM (EGFR): 28% | remaining binding at 1 µM (EGFR(E746-A750del)): 0% | remaining binding at 1 µM (MST3): 32% | remaining binding at 1 µM (DYRK1B): 11% | remaining binding at 1 µM (TRKB): 8.3% | remaining binding at 1 µM (EGFR(L858R)): 20% | remaining binding at 1 µM (TTK): 13% | remaining binding at 1 µM [4]: 8.4% | remaining binding at 1 µM (MUSK): 0.4% | remaining binding at 1 µM (FLT3(N841I)): 0.3% | remaining binding at 1 µM (MEK5): 26% | remaining binding at 1 µM (RIOK3): 3.6% | remaining binding at 1 µM (CDK4-cyclinD3): 3% | remaining binding at 1 µM (ULK2): 2.5% | remaining binding at 1 µM (TAOK3): 22% | remaining binding at 1 µM (PAK3): 23% | remaining binding at 1 µM (IRAK3): 24% | remaining binding at 1 µM (ULK1): 8.1% | remaining binding at 1 µM (TRKA): 1.1% | remaining binding at 1 µM [5]: 5.6%
